Experimental data as given in US11691980B2, “Liphagal analog and multi-targeted kinase inhibitor containing liphagal or analog thereof” (TOHOKU UNIVERSITY, priority 2017, dated 2023).

Columns and labels:
Type in all cases: biochemical
PIK3CA/PIK3R1 = PIK3CA/PIK3R1 (Homo sapiens, UniProt P42336); assay: ADP-Glo Kinase Assay; details: FIG. 4
Procedure: CD-3 produced in the foregoing was used as a test substance, and was measured for its IC50 value for PIK3CA/PIK3R1 by ADP-Glo™ Kinase Assay. A specific procedure is as described below.
The test substance was dissolved in dimethyl sulfoxide (DMSO), and further diluted with DMSO to prepare a solution having a 100-fold concentration with respect to a Lest concentration. The solution was further diluted 25-fold with an assay buffer to prepare a test substance solution. A positive control substance was similarly treated to prepare a positive control substance solution.
1) 5 μL of a test substance solution having a 4-fold concentration, 5 μL of a substrate solution having a 4-fold concentration, 5 μL of an ATP solution having a 4-fold concentration, and 5 μL of a kinase/metal solution having a 4-fold concentration, which had been prepared with an assay buffer (50 mM MOPS, 1 mM DTT, pH 7.2), were mixed in wells of a 384 well black plate made of polystyrene, and the mixture was subjected to a reaction at room temperature for 1 hour. […]
4) The kinase reaction was assessed in terms of relative light unit (RLU). […]
An IC50 value was determined by approximating a plot of test substance concentration and inhibition rate to a 4-parameter logistic curve by a nonlinear least-squares method.

CDK7/CycHMAT1 = CDK7/CycHMAT1 (Homo sapiens, UniProt P50613); assay: IC50 by mobility shift assay; details: Table 2, mobility shift assay; read-out: IC50 (μM), Kinase CDK7/CycH/MAT1
CDK7/CycHMAT1, sequence (P50613 whole entry): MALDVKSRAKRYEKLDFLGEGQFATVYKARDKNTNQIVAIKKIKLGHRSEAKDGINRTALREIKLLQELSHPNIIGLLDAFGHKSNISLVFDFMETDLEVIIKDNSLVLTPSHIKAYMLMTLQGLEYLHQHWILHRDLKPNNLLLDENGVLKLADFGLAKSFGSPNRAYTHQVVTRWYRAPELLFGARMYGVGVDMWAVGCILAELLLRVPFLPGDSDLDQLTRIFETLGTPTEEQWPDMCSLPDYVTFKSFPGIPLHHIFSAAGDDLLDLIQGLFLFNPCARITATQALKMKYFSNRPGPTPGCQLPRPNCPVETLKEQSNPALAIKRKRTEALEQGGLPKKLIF
CDK7/CycHMAT1, sequence (P51946 whole entry partner): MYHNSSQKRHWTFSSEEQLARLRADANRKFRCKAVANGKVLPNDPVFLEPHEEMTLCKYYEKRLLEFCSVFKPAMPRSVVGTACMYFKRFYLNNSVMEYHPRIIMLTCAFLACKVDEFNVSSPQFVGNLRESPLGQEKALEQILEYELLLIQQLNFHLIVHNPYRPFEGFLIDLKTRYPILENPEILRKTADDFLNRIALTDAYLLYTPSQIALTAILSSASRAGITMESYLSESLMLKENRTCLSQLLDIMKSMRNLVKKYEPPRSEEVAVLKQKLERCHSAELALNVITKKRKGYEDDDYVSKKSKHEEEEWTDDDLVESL
CDK7/CycHMAT1, sequence (P51948 whole entry partner): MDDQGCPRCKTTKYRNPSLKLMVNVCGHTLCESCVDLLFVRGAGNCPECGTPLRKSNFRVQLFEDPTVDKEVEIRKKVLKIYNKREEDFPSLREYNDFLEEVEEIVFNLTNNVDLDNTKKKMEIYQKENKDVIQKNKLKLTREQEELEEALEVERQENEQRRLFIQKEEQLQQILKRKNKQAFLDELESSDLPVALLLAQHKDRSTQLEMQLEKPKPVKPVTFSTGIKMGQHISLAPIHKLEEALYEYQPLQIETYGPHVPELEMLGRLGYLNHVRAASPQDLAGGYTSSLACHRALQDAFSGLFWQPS
Excerpt: (§1) The compounds produced in Production Examples described above were each assessed for its inhibitory activity against CDK7, PIM2, and PI3K by mobility shift assay. In addition, a combination showing the highest inhibitory activity against each kinase is indicated by italics.

PIM2 = PIM2 (Homo sapiens, UniProt Q9P1W9); assay: IC50 by mobility shift assay; details: for IC50: Table 2, mobility shift assay, read-out: IC50 (μM), Kinase PIM2; for inhibitory activity against PIM2: in words, Table 2
PIM2, sequence (Q9P1W9 whole entry): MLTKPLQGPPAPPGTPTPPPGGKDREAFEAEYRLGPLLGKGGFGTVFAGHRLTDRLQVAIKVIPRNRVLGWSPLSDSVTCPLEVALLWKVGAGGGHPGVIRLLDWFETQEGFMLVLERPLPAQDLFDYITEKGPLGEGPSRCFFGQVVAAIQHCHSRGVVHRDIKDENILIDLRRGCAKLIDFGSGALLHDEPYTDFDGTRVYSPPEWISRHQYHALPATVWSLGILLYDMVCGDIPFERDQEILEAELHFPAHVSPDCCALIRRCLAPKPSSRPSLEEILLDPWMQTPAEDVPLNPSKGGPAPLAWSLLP
Excerpt: as §1

PIK3α (PIK3CA/PIK3R1) = PIK3α (PIK3CA/PIK3R1) (Homo sapiens, UniProt P42336); assay: IC50 by mobility shift assay; details: Table 2, mobility shift assay; read-out: IC50 (μM), Kinase PIK3CA/PIK3RI
PIK3α (PIK3CA/PIK3R1), sequence (P42336 whole entry): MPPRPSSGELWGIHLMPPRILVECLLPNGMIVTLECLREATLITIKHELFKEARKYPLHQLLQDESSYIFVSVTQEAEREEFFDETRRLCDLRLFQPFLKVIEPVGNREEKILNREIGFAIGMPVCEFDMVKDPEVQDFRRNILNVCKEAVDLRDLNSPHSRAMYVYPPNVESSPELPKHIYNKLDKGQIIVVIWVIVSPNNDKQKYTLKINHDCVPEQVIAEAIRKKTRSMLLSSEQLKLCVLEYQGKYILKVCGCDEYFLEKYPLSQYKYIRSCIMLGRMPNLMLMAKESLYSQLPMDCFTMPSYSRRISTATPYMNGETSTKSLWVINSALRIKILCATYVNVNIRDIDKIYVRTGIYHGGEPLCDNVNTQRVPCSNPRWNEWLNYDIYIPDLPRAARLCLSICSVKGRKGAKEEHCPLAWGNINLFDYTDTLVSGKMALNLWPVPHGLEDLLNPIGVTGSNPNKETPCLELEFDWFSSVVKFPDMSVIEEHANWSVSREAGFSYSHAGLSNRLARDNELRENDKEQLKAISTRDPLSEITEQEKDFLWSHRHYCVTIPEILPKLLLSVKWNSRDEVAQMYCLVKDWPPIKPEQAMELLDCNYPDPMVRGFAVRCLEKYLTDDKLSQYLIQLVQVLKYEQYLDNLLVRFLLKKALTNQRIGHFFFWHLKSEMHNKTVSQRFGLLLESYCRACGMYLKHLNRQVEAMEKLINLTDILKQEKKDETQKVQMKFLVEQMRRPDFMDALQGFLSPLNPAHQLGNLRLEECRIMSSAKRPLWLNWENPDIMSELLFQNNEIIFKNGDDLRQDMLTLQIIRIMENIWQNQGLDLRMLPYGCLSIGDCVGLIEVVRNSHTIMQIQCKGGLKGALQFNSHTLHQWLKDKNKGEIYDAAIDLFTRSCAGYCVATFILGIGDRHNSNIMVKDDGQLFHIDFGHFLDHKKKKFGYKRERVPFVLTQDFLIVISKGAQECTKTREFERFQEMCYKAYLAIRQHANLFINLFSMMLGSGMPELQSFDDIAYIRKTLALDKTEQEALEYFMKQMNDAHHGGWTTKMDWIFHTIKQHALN
PIK3α (PIK3CA/PIK3R1), sequence (P27986 whole entry partner): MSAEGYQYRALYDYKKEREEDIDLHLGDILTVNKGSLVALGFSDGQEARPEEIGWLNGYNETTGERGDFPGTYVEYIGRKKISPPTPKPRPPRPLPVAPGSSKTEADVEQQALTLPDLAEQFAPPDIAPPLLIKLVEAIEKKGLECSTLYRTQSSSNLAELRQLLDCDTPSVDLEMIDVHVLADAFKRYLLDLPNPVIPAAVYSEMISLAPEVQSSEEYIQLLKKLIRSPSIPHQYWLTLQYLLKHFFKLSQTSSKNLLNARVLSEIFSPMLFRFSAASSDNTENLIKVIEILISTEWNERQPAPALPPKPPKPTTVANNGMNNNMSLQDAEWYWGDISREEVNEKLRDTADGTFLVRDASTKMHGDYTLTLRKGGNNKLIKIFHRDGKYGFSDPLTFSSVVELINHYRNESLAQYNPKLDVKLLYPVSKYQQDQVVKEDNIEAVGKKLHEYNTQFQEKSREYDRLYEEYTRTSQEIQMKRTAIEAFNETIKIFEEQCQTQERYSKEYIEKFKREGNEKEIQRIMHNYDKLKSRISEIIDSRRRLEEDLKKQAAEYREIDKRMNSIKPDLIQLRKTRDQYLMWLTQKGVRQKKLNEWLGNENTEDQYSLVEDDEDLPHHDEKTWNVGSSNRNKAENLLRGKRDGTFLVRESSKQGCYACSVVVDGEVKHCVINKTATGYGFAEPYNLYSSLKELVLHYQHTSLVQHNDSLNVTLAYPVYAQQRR
Procedure: The compounds obtained in Production Examples described above were each measured for its IC50 value for PIK3α (PIK3CA/PIK3R1) by mobility shift assay. The mobility shift assay is a method involving separating and quantifying a substrate and a phosphorylated substrate on the basis of mobility in a capillary. Each compound was mixed at various concentrations with an assay buffer (20 mM HEPES, 2 mM DTT, 25 μM sodium cholate, 75 mM NaCl, 20 μM cantharidine) together with 21 nM PI3K, 1,000 nM phosphatidyl inositol, 50 μM ATP, and 5 mM MgCl, and the mixture was subjected to a reaction at room temperature for 5 hours, followed by the mobility shift assay. The test was repeated twice. The enzymatic reaction was assessed on the basis of a product ratio (P/(P+S)) calculated from the height of a substrate peptide peak (S) and the height of a phosphorylated peptide peak (P). An inhibition rate was calculated from a signal obtained when each compound was added, with the average signal of a control containing all reaction components being defined as 0% inhibition and the average signal of a background (no enzyme added) being defined as 100% inhibition.
as §1

CDK4/CycD3 = CDK4/CycD3 (Homo sapiens, UniProt P11802); assay: IC50 by mobility shift assay; details: Table 3, CDK4, mobility shift assay; read-out: IC50 (μM), Kinase CDK4/CycD3
CDK4/CycD3, sequence (P11802 whole entry): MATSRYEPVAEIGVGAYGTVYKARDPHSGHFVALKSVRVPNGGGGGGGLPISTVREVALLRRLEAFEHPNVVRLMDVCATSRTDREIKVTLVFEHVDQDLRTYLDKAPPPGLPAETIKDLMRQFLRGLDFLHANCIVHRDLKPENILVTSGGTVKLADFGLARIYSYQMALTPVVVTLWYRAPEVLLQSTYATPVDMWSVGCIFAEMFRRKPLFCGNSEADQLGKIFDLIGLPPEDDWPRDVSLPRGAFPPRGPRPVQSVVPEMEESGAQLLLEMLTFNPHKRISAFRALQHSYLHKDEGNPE
CDK4/CycD3, sequence (P30281 whole entry partner): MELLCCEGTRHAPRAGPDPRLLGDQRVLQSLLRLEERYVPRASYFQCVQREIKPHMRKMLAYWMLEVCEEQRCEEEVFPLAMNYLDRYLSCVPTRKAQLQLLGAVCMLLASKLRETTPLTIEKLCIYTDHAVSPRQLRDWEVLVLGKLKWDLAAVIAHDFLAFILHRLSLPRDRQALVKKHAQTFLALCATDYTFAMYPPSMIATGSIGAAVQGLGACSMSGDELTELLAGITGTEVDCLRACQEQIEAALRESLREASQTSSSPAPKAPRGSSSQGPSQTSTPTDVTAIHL
Excerpt: Next, the compounds produced in Production Examples described above were each assessed for its inhibitory activity against CDK4 by mobility shift assay. In addition, a combination showing the highest inhibitory activity is indicated by italics.

CDK6 = CDK6 (Homo sapiens, UniProt Q00534); assay: IC50 by mobility shift assay; details: Table 4, inhibitory activity against CDK6, mobility shift assay; read-out: IC50 (μM), Kinase
CDK6, sequence (Q00534 whole entry): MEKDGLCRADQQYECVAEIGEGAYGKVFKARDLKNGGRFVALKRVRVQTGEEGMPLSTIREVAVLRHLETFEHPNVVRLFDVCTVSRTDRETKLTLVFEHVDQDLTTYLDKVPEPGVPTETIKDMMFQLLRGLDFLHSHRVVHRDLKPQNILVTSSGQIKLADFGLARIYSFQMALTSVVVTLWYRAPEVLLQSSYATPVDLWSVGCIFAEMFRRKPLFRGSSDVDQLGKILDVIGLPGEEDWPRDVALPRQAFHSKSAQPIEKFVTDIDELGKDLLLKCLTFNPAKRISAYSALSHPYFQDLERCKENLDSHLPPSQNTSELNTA
Excerpt: Next, the compounds produced in Production Examples described above were each assessed for its inhibitory activity against CDK6 by mobility shift assay. In addition, a combination showing the highest inhibitory activity is indicated by italics.

PIK3CA/PIK3R1, sequence (P42336 whole entry): as the sequence (P42336 whole entry) above
PIK3CA/PIK3R1, sequence (P27986 whole entry partner): as the sequence (P27986 whole entry partner) above

IC50 (PIK3CA/PIK3R1) [µM] | IC50 (CDK7/CycHMAT1) [µM] | IC50 (PIM2) [µM] | inhibitory activity against PIM2 (PIM2) | IC50 (PIK3α (PIK3CA/PIK3R1)) [µM] | IC50 (CDK4/CycD3) [µM] | IC50 (CDK6) [µM] | SMILES
8.2 |  |  |  |  |  |  | C[C@H]1CC[C@H]2C(C)(C)CCCC2(C)[C@]12C=C1C=C(O)C(=O)C(C=O)=C1O2 (stereo partly drawn) [CD-3, 8-epi-corallidictyal B]
 | 9.08 | 2.81 | potent inhibitory actions | 1.72 | 125 |  | C[C@H]1CC[C@H]2C(C)(C)CCC[C@]2(C)c2c1oc1c(C=O)c(O)c(O)cc21 [LG-2]
 | 16.3 | 18 |  | 4.26 | 47.8 | 64.1 | C[C@@H]1CC[C@H]2C(C)(C)CCC[C@]2(C)c2c1oc1c(C=O)c3c(cc21)OCO3 [LG-3]
 | 191 | 13.8 |  | 4.43 |  |  | C[C@H]1CC[C@H]2C(C)(C)CCC[C@]2(C)c2c1oc1c(C=O)c3c(cc21)OCO3 [LG-4]
 | 13.7 | 6.99 |  | 2.62 | 32.9 | 69.1 | C[C@@H]1CC[C@H]2C(C)(C)CCC[C@]2(C)/C1=C/c1cc(O)c(O)c(C=O)c1O [SD-1, siphonodictyal B]
 | 4.24 | 2.79 | potent inhibitory actions | 3.26 | 22.4 | 25.6 | C[C@H]1CC[C@H]2C(C)(C)CCC[C@]2(C)/C1=C/c1cc(O)c(O)c(C=O)c1O [SD-2, 8-epi-siphonodictyal B]
